# Assay results published in patent US10174037B2, “Dihydropyrazolopyrimidinone compounds as PDE2 inhibitors” (Merck Sharp & Dohme Corp., priority 2015, dated 2019).
# Molecular target: human PDE2A1 (Homo sapiens (Human), UniProt O00408)
# Assay: PDE selectivity IMAP FP assay, human PDE2A1
# Assay type: biochemical
# Details: Human PDE2; Lab B; read-out: Human PDE2 Ki (nM) Lab B
# Protocol: Selectivity for PDE2, as compared to other PDE families, was assessed using the IMAP® technology. Human PDE10A2 enzyme was prepared from cytosolic fractions of transiently transfected HEK cells.
# A Labcyte POD 810 (Labcyte, Sunnyvale, Calif.) was used to dispense 200 nL from each well of the titration plate to make eleven copies of the assay plate for each titration, one copy for each PDE enzyme. A solution of each enzyme (dilution from aliquots, sufficient to produce 20% substrate conversion) and a separate solution of FAM-labeled cAMP or FAM-labeled cGMP from Molecular Devices (Sunnyvale, Calif., product # R7506 or cGMP#R7508), at a final concentration of 50 nM were made in the assay buffer (10 mM Tris HCl, pH 7.2, 10 mM MgCl2, 0.05% NaN3 0.01% Tween-20, and 1 mM DTT). Note that the substrate for PDE2 is 50 nM FAM cAMP containing 1000 nM of cGMP. The enzyme and the substrate were then added to the assay plates in two consecutive additions of 10 μL and then shaken to mix. The reaction was allowed to proceed at room temperature for 60 minutes. A binding solution was then made from the kit components, comprised of 80% Solution A, 20% Solution B and binding reagent at a volume of 1/600 the total binding solution. The enzymatic reaction was stopped by addition of 60 μL of the binding solution to each well of the assay plate. […] The plates were incubated at room temperature for one hour, then the parallel and perpendicular fluorescence was measured using a Tecan Genios Pro plate reader (Tecan, Switzerland). […] The intrinsic PDE2 inhibitory activity of a compound which may be used in accordance with the present invention may be determined by these assays. […]
# The PDE2 Ki is a measure of the ability of the test compound to inhibit the action of the PDE2 enzyme.
# human PDE2A1, sequence (O00408 other isoform, or with tags, fused parts or gaps): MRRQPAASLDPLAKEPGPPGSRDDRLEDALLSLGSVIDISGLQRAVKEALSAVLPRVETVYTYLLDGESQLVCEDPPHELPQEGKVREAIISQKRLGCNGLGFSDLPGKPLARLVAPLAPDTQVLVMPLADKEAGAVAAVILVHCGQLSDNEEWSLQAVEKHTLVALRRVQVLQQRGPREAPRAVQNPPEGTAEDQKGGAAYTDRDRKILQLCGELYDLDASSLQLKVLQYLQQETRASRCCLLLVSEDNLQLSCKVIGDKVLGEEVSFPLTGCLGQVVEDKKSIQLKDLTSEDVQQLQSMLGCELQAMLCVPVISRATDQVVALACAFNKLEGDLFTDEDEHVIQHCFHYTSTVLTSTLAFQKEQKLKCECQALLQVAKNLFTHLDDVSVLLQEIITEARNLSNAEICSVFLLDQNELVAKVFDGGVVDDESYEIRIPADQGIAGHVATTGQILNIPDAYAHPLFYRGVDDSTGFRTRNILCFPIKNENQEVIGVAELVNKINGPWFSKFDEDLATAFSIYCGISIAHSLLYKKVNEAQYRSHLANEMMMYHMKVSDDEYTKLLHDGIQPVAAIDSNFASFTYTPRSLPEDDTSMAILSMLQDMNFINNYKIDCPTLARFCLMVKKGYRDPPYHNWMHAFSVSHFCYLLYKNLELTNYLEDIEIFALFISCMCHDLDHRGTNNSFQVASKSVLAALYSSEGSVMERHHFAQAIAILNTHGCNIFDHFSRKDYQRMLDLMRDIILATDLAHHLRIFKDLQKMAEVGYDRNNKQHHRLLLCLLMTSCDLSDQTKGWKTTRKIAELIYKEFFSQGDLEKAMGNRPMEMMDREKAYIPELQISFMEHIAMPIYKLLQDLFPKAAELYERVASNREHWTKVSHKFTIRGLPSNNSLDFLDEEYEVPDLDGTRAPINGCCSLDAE
row,Compound,Ki [nM]
1,"CCC(c1ccc(C(F)(F)F)cc1)n1nc(CF)c2c(=O)[nH]c(N(C)C)nc21 (single isomer, unassigned) [Example 172, (R)- or (S)-6-(Dimethylamino)-3-(fluoromethyl)-1-(1-(4-(trifluoromethyl)phenyl)propyl)-1H-pyrazolo[3,4-d]pyrimidin-4(5H)-one]",2.2
2,"CC(c1ccc(CC(F)(F)F)cc1)n1nc(CF)c2c(=O)[nH]c(N(C)C)nc21 (single isomer, unassigned) [Example 174, (R)- or (S)-6-(Dimethylamino)-3-(fluoromethyl)-1-(1-(4-(2,2,2-trifluoroethyl)phenyl)ethyl)-1H-pyrazolo[3,4-d]pyrimidin-4(5H)-one]",2.7
3,"CC(c1ccc(CC(F)(F)F)cc1)n1nc(CF)c2c(=O)[nH]c(N(C)C)nc21 (single isomer, unassigned) [Example 175, (S)- or (R)-6-(Dimethylamino)-3-(fluoromethyl)-1-(1-(4-(2,2,2-trifluoroethyl)phenyl)ethyl)-1H-pyrazolo[3,4-d]pyrimidin-4(5H)-one]",0.39
4,"CN(C)c1nc2c(c(CF)nn2C(c2ccc(C(F)(F)F)cc2)C2CC2)c(=O)[nH]1 (single isomer, unassigned) [Example 178, (R)- or (S)-1-(Cyclopropyl(4-(trifluoromethyl)phenyl)methyl)-6-(dimethylamino)-3-(fluoromethyl)-1H-pyrazolo[3,4-d]pyrimidin-4(5H)-one]",1.1
5,"CN(C)c1nc2c(c(CF)nn2C(c2ccc(C(F)(F)F)c(F)c2)C2CC2)c(=O)[nH]1 (single isomer, unassigned) [Example 180, (R)- or (S)-1-(Cyclopropyl(3-fluoro-4-(trifluoromethyl)phenyl)methyl)-6-(dimethylamino)-3-(fluoromethyl)-1H-pyrazolo[3,4-d]pyrimidin-4(5H)-one]",1.2
6,"CC(c1ccc(C(F)(F)F)cc1F)n1nc(CF)c2c(=O)[nH]c(N(C)C)nc21 (single isomer, unassigned) [Example 187, (S)- or (R)-6-(Dimethylamino)-1-(1-(2-fluoro-4-(trifluoromethyl)phenyl)ethyl)-3-(fluoromethyl)-1H-pyrazolo[3,4-d]pyrimidin-4(5H)-one]",19
7,"CC(c1ccc(C(F)F)cc1)n1nc(CF)c2c(=O)[nH]c(N(C)C)nc21 (single isomer, unassigned) [Example 190, (R)- or (S)-1-(1-(4-(Difluoromethyl)phenyl)ethyl)-6-(dimethylamino)-3-(fluoromethyl)-1H-pyrazolo[3,4-d]pyrimidin-4(5H)-one]",27
8,"CC(c1ccc(C(C)(F)F)cc1)n1nc(CF)c2c(=O)[nH]c(N(C)C)nc21 (single isomer, unassigned) [Example 194, (R)- or (S)-1-(1-(4-(1,1-Difluoroethyl)phenyl)ethyl)-6-(dimethylamino)-3-(fluoromethyl)-1H-pyrazolo[3,4-d]pyrimidin-4(5H)-one]",6.1
9,"CC(c1ccc(C(F)F)c(F)c1)n1nc(CF)c2c(=O)[nH]c(N(C)C)nc21 (single isomer, unassigned) [Example 197, (S)- or (R)-1-(1-(4-(Difiuoromethyl)-3-fluorophenyl)ethyl)-6-(dimethylamino)-3-(fluoromethyl)-1H-pyrazolo[3,4-d]pyrimidin-4(5H)-one]",18
10,"CCC(c1ccc(C(F)(F)F)cc1F)n1nc(CF)c2c(=O)[nH]c(N(C)C)nc21 (single isomer, unassigned) [Example 199, (S)- or (R)-6-(Dimethylamino)-1-(1-(2-fluoro-4-(trifluoromethyl)phenyl)propyl)-3-(fluoromethyl)-1H-pyrazolo[3,4-d]pyrimidin-4(5H)-one]",1.1
11,"CC(C)C(c1ccc(C(F)(F)F)cc1F)n1nc(CF)c2c(=O)[nH]c(N(C)C)nc21 (single isomer, unassigned) [Example 201, (S)- or (R)-6-(Dimethylamino)-1-(1-(2-fluoro-4-(trifluoromethyl)phenyl)-2-methylpropyl)-3-(fluoromethyl)-1H-pyrazolo[3,4-d]pyrimidin-4(5H)-one]",1.2
